In paper PMC5011342, “A high throughput drug screening assay to identify compounds that promote oligodendrocyte differentiation using acutely dissociated and purified oligodendrocyte precursor cells” (BMC Research Notes, 2016):
Like-named read-outs stand apart in the source and are kept apart here.

Columns and labels:
[1] = system: acutely dissociated and purified rat OPCs; experiment: Acute OL differentiation assay (MBP expression/cell, immunofluorescent image quantification); format: cell-based; details: sheet "All OLga data"
Summary of the method: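 This acute differentiation assay used purified rat OPCs from postnatal day 6–7 pups, seeded into PDL/laminin-coated 96-well plates in differentiation medium lacking PDGF and FGF. Compounds were applied in quadruplicate after a 1–2 h preincubation at 37 °C, 10 % CO2, with 0.1 % DMSO negative and 40 ng/ml T3 positive controls in eight wells. After fixation on DIV4, anti-MBP immunofluorescence images yielded MBP expression/cell.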

expanded OPCs = experiment: cells; details: for viability at 0.1 µM / viability at 1 µM / viability at 10 µM: Rattus norvegicus, 72 h
Protocol: Having established a consistent assay for measuring OL differentiation in vitro, the next step was to utilize this assay to assess the ability of a wide array of compounds to promote OL differentiation. Prior to library screening, we first established the maximum non-toxic dose of each compound in the library. […] Therefore, we added each compound in the NIH clinical collection (NCC) library to OPCs at 10, 1, and 0.1 µM concentrations. Three days later, we assessed viability of the treated cells by measuring AlamarBlue fluorescence, a measure of cell viability (see “Methods” section). […] Appropriately, we established three sets of screening concentrations for library compounds: non-toxic compounds were tested at 10 and 2 µM, slightly toxic compounds (only toxic at 10 µM) were tested at 2 and 0.4 µM, and very toxic compounds were tested at 0.4 and 0.08 µM.
OPCs were expanded in vitro by seeding into PDL-coated tissue culture flasks at 1000–2000 cells/cm^2 in differentiation media supplemented with 10 ng/ml PDGF-AA. Proliferating OPCs were fed every 2–3 days and supplemented with 2–3× concentration of PDGF as needed to prevent OPC differentiation. After 6–7 days of proliferation, OPCs were harvested by trypsinization, plated into PDL-coated 96-well Falcon plates and centrifuged at 200×g to facilitate cell attachment, survival, and even distribution of cells. Expanded OPCs were seeded in differentiation media at 10,000 cells/well and incubated for 2 h at 37 °C, 10 % CO2 prior to addition of compounds. The NCC library was diluted and added to cells at 10, 1, and 0.1 µM; each concentration was tested in quadruplicate. As a positive control for the induction of toxicity, 5 ng/ml tunicamycin was added to 8 wells in each plate. Three days later, a 1:10 dilution of alamarBlue® (AB) was added to each well and cells were incubated 4 h at 37 °C, 10 % CO2. AB fluorescence was measured using a PerkinElmer Victor II fluorescence microplate reader (PerkinElmer, Waltham, MA) with 560 nm excitation/590 nm emission filters. For library screening, the highest concentration of each compound was adjusted to a minimally toxic concentration based on this toxicity data. Compounds were additionally tested at a second concentration that was 1/5th of the top concentration. The final concentration of DMSO in each well was 0.1 %.

[2] = Rattus norvegicus, 0.4 uM test compound, relative to quetiapine, read-out: OL differentiation, 0.4 uM (% Quet)
[3] = Rattus norvegicus, 2 uM test compound, relative to quetiapine, read-out: OL differentiation, 2 uM (% Quet)
[4] = read-out: 0.1 µM (% DMSO), alamarBlue viability of expanded OPCs, compound at 0.1 µM, sheet All Tox data
[5] = read-out: 1 µM (% DMSO), alamarBlue viability of expanded OPCs, compound at 1 µM, sheet All Tox data
[6] = read-out: 10 µM (% DMSO), alamarBlue viability of expanded OPCs, compound at 10 µM, sheet All Tox data
[7] = Rattus norvegicus, test compound at 2 uM, NCC library screen, relative to quetiapine, read-out: 2 uM (% Quet)
[8] = read-out: 0.1 µM (% DMSO), alamarBlue viability, NCC library compound at 0.1 µM, sheet "All Tox data"
[9] = read-out: 1 µM (% DMSO), alamarBlue viability, NCC library compound at 1 µM, sheet "All Tox data"
[10] = read-out: 10 µM (% DMSO), alamarBlue viability, NCC library compound at 10 µM, sheet "All Tox data"
[11] = Rattus norvegicus, test compound at 2 uM, MBP expression relative to quetiapine, NCC library screen, read-out: 2 uM (% Quet)
[12] = Rattus norvegicus, test compound at 10 uM, MBP expression relative to quetiapine, NCC library screen, read-out: 10 uM (% Quet)
[13] = alamarBlue viability of expanded OPCs, compound at 0.1 µM, relative to DMSO control
[14] = alamarBlue viability of expanded OPCs, compound at 1 µM, relative to DMSO control
[15] = alamarBlue viability of expanded OPCs, compound at 10 µM, relative to DMSO control

CNCC[C@@H](Oc1ccccc1C)c1ccccc1 [Atomoxetine]
activation at 0.4 µM [1, 2]: -17.2% | activation at 2 µM [1, 3]: -20.9% | viability at 0.1 µM (expanded OPCs; [4]): 87.4% | viability at 1 µM (expanded OPCs; [5]): 74.9% | viability at 10 µM (expanded OPCs; [6]): 33.8%

COc1ccc(CC2c3cc(OC)c(OC)cc3CC[N+]2(C)CCC(=O)OCCCCCOC(=O)CC[N+]2(C)CCc3cc(OC)c(OC)cc3C2Cc2ccc(OC)c(OC)c2)cc1OC (centres unmarked) [Atracurium]
activation at 0.4 µM ([1]; Rattus norvegicus, test compound at 0.4 uM, NCC library screen, relative to quetiapine, read-out: 0.4 uM (% Quet)): 9.5% | activation at 2 µM [1, 7]: -83% | viability at 0.1 µM (expanded OPCs; [8]): 84.6% | viability at 1 µM (expanded OPCs; [9]): 75.3% | viability at 10 µM (expanded OPCs; [10]): 56.2%

Nc1ncn([C@@H]2O[C@H](CO)[C@@H](O)[C@H]2O)c(=O)n1 [Azacitidine]
activation at 2 µM [1, 11]: -59.1% | activation at 10 µM [1, 12]: -131% | 0.1 µM (% DMSO) (expanded OPCs; [13]): 92.1 % DMSO | 1 µM (% DMSO) (expanded OPCs; [14]): 66.4 % DMSO | 10 µM (% DMSO) (expanded OPCs; [15]): 57.5 % DMSO

CN1C(=O)COc2c(C(=O)NC3CN4CCC3CC4)cc(Cl)cc21 (centres unmarked) [Azasetron]
activation at 2 µM [1, 3]: -8.9% | activation at 10 µM ([1]; Rattus norvegicus, 10 uM test compound, relative to quetiapine, read-out: OL differentiation, 10 uM (% Quet)): -16.8% | viability at 0.1 µM (expanded OPCs; [8]): 94.2% | viability at 1 µM (expanded OPCs; [9]): 80.9% | viability at 10 µM (expanded OPCs; [10]): 76.8%

Cn1cnc([N+](=O)[O-])c1Sc1ncnc2nc[nH]c12 [Azathioprine]
activation at 2 µM [1, 11]: -21.2% | activation at 10 µM [1, 12]: -94.3% | 0.1 µM (% DMSO) (expanded OPCs; [13]): 90.4 % DMSO | 1 µM (% DMSO) (expanded OPCs; [14]): 91.6 % DMSO | 10 µM (% DMSO) (expanded OPCs; [15]): 63.6 % DMSO

O=c1cnn([C@@H]2O[C@H](CO)[C@@H](O)[C@H]2O)c(=O)[nH]1 [Azauridine]
2 uM (% Quet) ([1]; test compound at 2 uM, NCC library screen, relative to quetiapine): -8.7 % Quet | 10 uM (% Quet) ([1]; test compound at 10 uM, NCC library screen, relative to quetiapine): -6.4 % Quet | 0.1 µM (% DMSO) (expanded OPCs; alamarBlue viability, NCC library compound at 0.1 µM, sheet "All Tox data"): 94.5 % DMSO | 1 µM (% DMSO) (expanded OPCs; alamarBlue viability, NCC library compound at 1 µM, sheet "All Tox data"): 93.6 % DMSO | 10 µM (% DMSO) (expanded OPCs; alamarBlue viability, NCC library compound at 10 µM, sheet "All Tox data"): 80.3 % DMSO

CN1CCCC(n2nc(Cc3ccc(Cl)cc3)c3ccccc3c2=O)CC1 (centres unmarked) [Azelastine]
activation at 0.4 µM [1, 2]: 1% | activation at 2 µM [1, 3]: -19% | viability at 0.1 µM (expanded OPCs; [4]): 90.1% | viability at 1 µM (expanded OPCs; [5]): 51.5% | viability at 10 µM (expanded OPCs; [6]): 12%

CC[C@H]1OC(=O)[C@H](C)[C@@H](O[C@H]2C[C@@](C)(OC)[C@@H](O)[C@H](C)O2)[C@H](C)[C@@H](O[C@@H]2O[C@H](C)C[C@H](N(C)C)[C@H]2O)[C@](C)(O)C[C@@H](C)CN(C)[C@H](C)[C@@H](O)[C@]1(C)O [Azithromycin]
activation at 0.08 µM ([1]; Rattus norvegicus, test compound at 0.08 uM, MBP expression relative to quetiapine, NCC library screen, read-out: 0.08 uM (% Quet)): 8.2% | activation at 0.4 µM ([1]; Rattus norvegicus, test compound at 0.4 uM, MBP expression relative to quetiapine, NCC library screen, read-out: 0.4 uM (% Quet)): -7.2% | 0.1 µM (% DMSO) (expanded OPCs; [13]): 76.1 % DMSO | 1 µM (% DMSO) (expanded OPCs; [14]): 40.6 % DMSO | 10 µM (% DMSO) (expanded OPCs; [15]): 25.1 % DMSO

CC1(C)O[C@@H]2C[C@H]3[C@@H]4CCC5=CC(=O)C=C[C@]5(C)[C@@]4(F)[C@@H](O)C[C@]3(C)[C@]2(C(=O)CO)O1 [Azmacort]
activation at 2 µM [1, 11]: 24.2% | activation at 10 µM [1, 12]: -114% | 0.1 µM (% DMSO) (expanded OPCs; [13]): 95.7 % DMSO | 1 µM (% DMSO) (expanded OPCs; [14]): 95.0 % DMSO | 10 µM (% DMSO) (expanded OPCs; [15]): 69.5 % DMSO

O=C(O)CCNC(=O)c1ccc(/N=N/c2ccc(O)c(C(=O)O)c2)cc1 [Balsalazide]
activation at 2 µM [1, 7]: 10.7% | activation at 10 µM ([1]; Rattus norvegicus, test compound at 10 uM, NCC library screen, relative to quetiapine, read-out: 10 uM (% Quet)): 19.1% | viability at 0.1 µM (expanded OPCs; [8]): 88.1% | viability at 1 µM (expanded OPCs; [9]): 92% | viability at 10 µM (expanded OPCs; [10]): 85.1%
